# Reference: ChEMBL document CHEMBL1208722, “Synthesis of 2-(4-substituted benzyl-1,4-diazepan-1-yl)-N-(3,4-dihydro-3-oxo-2H-benzo[b][1,4]oxazin-7-yl)acetamides and their positive inotropic evaluation” (Bioorg Med Chem Lett, 2010)
# Key:
# [1] = Positive inotropic activity in perfused rabbit left atrium assessed as increase in stroke volume at 10 uM; assay type: functional, Oryctolagus cuniculus, Cardiac atrium
# [2] = Chronotropic activity in perfused rabbit left atrium assessed as change in heart rate (RVB = 105.33 +/- 0.12 beats/mins); assay type: tissue-based, Oryctolagus cuniculus, Cardiac atrium
# [3] = Chronotropic activity in perfused rabbit left atrium assessed as change in heart rate (RVB = 89.51 +/- 0.09 beats/mins); assay type: tissue-based, Oryctolagus cuniculus, Cardiac atrium
# [4] = Chronotropic activity in perfused rabbit left atrium assessed as change in heart rate (RVB = 92.52 +/- 017 beats/mins); assay type: tissue-based, Oryctolagus cuniculus, Cardiac atrium
# [5] = species on record: Oryctolagus cuniculus; assay: Positive inotropic activity in perfused rabbit left atrium assessed as increase in stroke volume; assay type: functional, tissue-based; conditions: Cardiac atrium
# [6] = Chronotropic activity in perfused rabbit left atrium assessed as change in heart rate (RVB = 102.31 +/- 0.07 beats/mins); assay type: tissue-based, Oryctolagus cuniculus, Cardiac atrium
Structure (SMILES),Activity [1],further results
COc1cccc(CN2CCN(CC(=O)Nc3ccc4c(c3)OCC(=O)N4)CC2)c1,3.96%,–
O=C(CN1CCCN(Cc2ccccc2F)CC1)Nc1ccc2c(c1)OCC(=O)N2,6.05%,Activity [2]: 102.88 bpm
COc1cc(CN2CCCN(CC(=O)Nc3ccc4c(c3)OCC(=O)N4)CC2)ccc1OCc1ccc(Cl)cc1,2.87%,Activity [3]: 80.02 bpm
COc1ccc(CN2CCCN(CC(=O)Nc3ccc4c(c3)OCC(=O)N4)CC2)cc1,3.22%,Activity [4]: 89.37 bpm
Cc1[nH]c(=O)c(C#N)cc1-c1ccncc1 [MILRINONE],2.38%,–
O=C(CN1CCCN(Cc2ccccc2Br)CC1)Nc1ccc2c(c1)OCC(=O)N2,7.68%,Activity [5]: Dose-dependent effect; Activity [6]: 98.64 bpm
